According to patent US11666562B2, “Ilaprazole for inhibiting the release of enveloped viruses from cells” (Northwestern University, priority 2020, dated 2023):

Columns and labels:
HSV-1 = assay: Release of HSV-1 from infected Vero cells, plaque assay; format: cell-based, Herpes simplex virus-1 (Kos strain); details: different concentrations, repeated 4 times
Protocol: (§1) We infected Vero cells with HSV-1 and HSV-2 for two hours at a multiplicity of infection (MOI in pfu\cell) of 0.1 to assay the antiviral activity of tenatoprazole. Following infection, cells were treated with different concentrations of tenatoprazole. After 24 or 48 h the media fractions were collected and released virus titers were determined by standard plaque assays (30). Tenatoprazole caused a 3-log drop of HSV-1 and 4-5 log drop of HSV-2 in released infectious virus from Vero cells at 24 hours after infection in a dose dependent manner (Table 1, shown in FIG. 5, columns 2 and 3) with calculated EC50's ranging from 48-80 μM. Total virus titer was also determined to differentiate between virus released into the media and infectious particles present in cell lysate. […] The concentrations of tenatoprazole that blocked virus release were nontoxic to Vero cells as determined by a 96® AQueous One Solution cell proliferation assay reagent (Table 1, shown in FIG. 5, column 7). Taken together, tenatoprazole inhibited levels of both released and infectious virus particles without affecting cell viability at effective concentrations.
(§2) Herpesvirus infection of Vero cells. Vero cells (0.8×10^6 cells/well of a 6-well plate) were infected with HSV-1 or HSV-2 at a MOI of 0.1 pfu/cell in DMEM with 1% serum for two hours in the C02 incubator at 37° C. In one experiment looking at the effect of tenatoprazole on HSV-2 release from cells 24 and 48 h a MOI of 3 pfu/cell was used. The cell supernatants were aspirated and replaced with 1 ml (24 h) or 2 ml (48 h and 72 h) of DMEM with 1% serum with DMSO or different concentrations of drug (tenatoprazole, ilaprazole, or analogs) dissolved in DMSO. After 24 or 48 h incubation, the cell supernatant was collected and frozen at −80° C. Virus titer in the cell media fraction was determined by standard plaque assays using 10-fold serial dilutions of cell supernatants of Vero cells and incubated for 48 h after which cells were fixed and stained to count the plaques (22). For determination of total virus (extracellular+cytoplasmic), virus infected cells were incubated for 24 h with and without drug presence, then the plate of cells were subjected to 3 cycles of freeze/thawing (−80° C./37° C.) 30 min each prior to collecting the supernatant after centrifugation for measurement of total virus titer. Virus titer was measured by standard plaque assay as above.
(§3) Drug potency and cell toxicity. EC50 calculations were determined by using AAT Bioquest's EC50 calculator. Cell toxicity at different concentrations of drugs as indicated was determine using the Cell Proliferation Reagent WST-1 (Roche Diagnostics) or cellular 96® Aqueous One Reagent viability reagent according to manufacturer's instructions. For 293T cells, the concentration of DMSO was 0.2% or less and assays were carried out with DMEM with 10% serum. Cell toxicity experiments were repeated twice.

HSV-2 = assay: Release of HSV-2 from infected Vero cells, plaque assay; format: cell-based, Herpes simplex virus-2(A/B-G); details: for Anti-HSV-2 activity (release from Vero cells), in words: Table 2, 24 h
Protocol: as §1
To examine the effects of the compounds on the release of HSV-2 from Vero cells, we infected the cells with virus two hours prior to treatment with media containing different concentrations of compound. We incubated the cells for 24 or 48 hours and then collected the cell media fractions.
as §2, §3

HIV-1 = details: earlier reports (refs 5, 29); cited from earlier work
[1] = molecular target: T1, Tsg101-UEV (Tsg101 amino acids 1-145) (Homo sapiens, UniProt Q99816); assay: Fluorescence thermal shift (FTS) assay, binding to Tsg101-UEV; details: FTS, Sypro-Orange, no DTT
T1 construct: The recombinant Tsg101 fragment (amino acids 1-145), prepared as described above in Materials and Methods; His6 (N); thrombin protease cleavage site (N); made in house; host or cells: E. coli ROSETTA 2 (DE3) pLysS
T1 sequence (Q99816 1-145): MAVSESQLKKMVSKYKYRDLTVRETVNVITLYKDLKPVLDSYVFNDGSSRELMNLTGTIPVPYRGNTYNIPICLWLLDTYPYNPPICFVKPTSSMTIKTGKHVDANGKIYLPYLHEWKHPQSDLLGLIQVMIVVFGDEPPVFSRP
Protocol: The fluorescence-based thermal shift assay is based on the observation that a protein unfolds upon heating, exposing the hydrophobic residues within its tertiary structure. The unfolding temperature (Tm) is determined by the protein's primary sequence and solution environment. The FTS assay uses a fluorescent dye sensitive to a hydrophobic environment to probe protein stability and its modulation by small molecule ligands. The dye has a low fluorescence quantum yield when in a polar environment. Once in contact with the hydrophobic core normally buried within a folded protein that has become exposed during the thermal unfolding (melting) process, the quantum yield of the dye increases, thus providing a reporting signal. Furthermore, a protein's stability can be affected by ligand binding, resulting in an increase or decrease in its melting temperature. FTS assay uses the Tm shift upon binding of a ligand to identify hit compounds for drug discovery.
Identification of prazole compounds that bind the UEV ubiquitin-binding domain of Tsg101. We screened chemical compounds using a fluorescence thermal shift (FTS) assay (27, 28) to identify small molecules that bind directly to a truncated form of Tsg101 (amino acids 1-145) which contains the Ubiquitin E2 variant (UEV) ubiquitin-binding domain (FIG. 1). The UEV, which contains the PT/SAP binding domain in addition to the ubiquitin-binding domain, provides chaperone functions to HIV-1 Gag that is independent of its interaction with the PS/TAP motif, and contains the prazole binding site (5). This truncated Tsg101, called Tsg101-UEV, was used because full-length Tsg101 has significant solubility issues in aqueous solution. Tsg101 is an adaptor protein and thus lacks a readily deployable functional assay, making FTS a tractable approach to identify interacting compounds. FTS monitors protein thermal denaturation using SYPRO-Orange, a dye which fluoresces when bound to hydrophobic surfaces, which allows monitoring of the changes in hydrophobic surface exposure during protein denaturation (27). Since ligand binding affects protein thermal stability, it can be detected through modulation of protein thermal denaturation (melting) as a shift in melting temperature (Tm). Tsg101-UEV has a well-defined melting curve suitable for FTS. We used the FTS assay to identify compounds that bind to Tsg101-UEV.
Purification of Tsg101 (1-145). N-terminally His6-tagged Tsg101 UEV domain (amino acids 1-145), called Tsg101-UEV, was encoded in a pET-28b vector (Novagen—EMD Millipore), which also included a thrombin protease cleavage site (His6-Thrombin Site-Tsg101, 1-145). Tsg101-UEV was grown in LB broth with Kanamycin (30 μg/ml) in ROSETTA 2 (DE3) pLysS E. coli competent cells (EMD Millipore) and induced with 1 mM IPTG at room temperature for 3 h. Bacteria were collected by centrifugation at 4,000 rpm for 10 min at […]. Bacteria were suspended in 50 ml binding buffer (20 mM Tris-HCl, pH 7.9, 0.5 M NaCl, 5 mM Imidazole) with 1 mM PMSF, 0.1% NP40, and a Protease Inhibitor Cocktail Tablet (Roche) and sonicated for 3.5 min on ice. The sonicate was spun at 9,000 rpm for 1 h at […] in a Sorvall centrifuge. The supernatant was collected and passed through a 1.5 ml Ni-NTA Agarose column. The column was washed with 20 mM Tris-HCl, pH 7.9, 0.5 M NaCl, 30 mM Imidazole wash buffer. […] Protein concentration was determined with a Nano Drop Spectrophotometer at […]. […]

Q: For NC(CO)C(=O)NNCc1ccc(O)c(O)c1O (stereo not shown) [benserazide (K21), benserazide], which “Effect on release of HSV-1 from VERO cells” value (HSV-1) is on record?
A: did not appear to affect release of virus from cells

Q: Which results are given for COc1ccc2nc([S@@+]([O-])Cc3ncc(C)c(OC)c3C)[nH]c2c1 [esomeprazole]?
A: EC50 (HSV-2; Human alphaherpesvirus 2, Vero cells, MOI 0.1, 24 h, read-out: EC50, inhibition of HSV-2 release): 140 µM; Inhibition of release of infectious HIV-1 from 293T cells (HIV-1): quantitatively inhibit the release

Q: Which “Anti-HSV-2 activity (release from Vero cells), in words” value (“Anti-HSV-2 activity” below) (HSV-2) does the source give for COc1ccc2nc([S+]([O-])Cc3c(C)c(OC)c(C)c[n+]3[O-])[nH]c2c1 (stereo not shown) [omeprazole-N-oxide] here?
A: inactive

Q: And the “Tm (melting temperature) shift of Tsg101-UEV” value [1]?
A: did not cause a detectable thermal shift

Q: Which “Anti-HSV-2 activity” value (HSV-2) does the source give for COc1ccnc(C[S+]([O-])c2nc3ccc(OC(F)F)cc3[nH]2)c1OC (stereo not shown) [pantoprazole] here?
A: inactive

Q: With COCCCOc1ccnc(C[S+]([O-])c2nc3ccccc3[nH]2)c1C (stereo not shown) [rabeprazole] as the compound, how does the “Anti-HSV-2 activity” value (HSV-2) read?
A: inactive
